{"source": "patent US20230212571A1", "about": "“COMPOSITIONS AND METHODS FOR DELIVERING POLYNUCLEOTIDES” (NeOnc Technologies, Inc., priority 2020, published 2023)", "key": {"AVM-BEC [1]": {"tested_on": "AVM-BEC", "details": "previous results from our laboratory (Ferreira 2014); cited from earlier work"}, "[2]": {"tested_on": "Mgp^−/− mouse model of AVM", "experiment": "Organ histology and complete blood count", "format": "in vivo", "details": "Mgp^−/− mice, IN 2-weeks", "experimental": "In vivo efficacy studies were performed using 3-week-old Mgp^+/- C57BL/6 mice^16,17 (Yao Y, Jumabay M, Wang A, Boström K I. Matrix Gla protein deficiency causes arteriovenous malformations in mice. J Clin Invest. 2011; 121(8):2993-3004) (Yao Y, Yao […], et al. Reducing Jagged 1 and 2 levels prevents cerebral arteriovenous malformations in matrix Gla protein deficiency. Proc Nat Acad Sci USA. 2013; 110(47):19071-19076). provided by Dr. Yucheng Yao (UCLA, Los Angeles) and mated to obtain the appropriate genotypes. Only about 10-15% of each litter were born with the Mgp^-/- genotype, and among those, only about 45% survived until the end of the treatment and/or the imaging of the brain vasculature, due to the extreme severity of the disease in this mouse model. These animals not only suffer AVMs in the brain, but all major organs are also affected and dysfunctional. Thus, […] might die due to several causes, including stroke, severe lung inflammation that causes respiratory failure-especially when anesthesia is used-, organ failure due to liver and/or spleen malfunction, heart failure, etc., drastically limiting the number of the Mgp^-/- mice available for the CTA studies. […] Treatment with 0.08 nmol/mouse of miR-18a or scramble microRNA was administered IN daily for 2-weeks. 2.5 μL/nostril were delivered in RNase-free water. Ultra-high-resolution in vivo computed tomography angiography (CTA) was performed in mice for 3D imaging of whole brain vascular architecture^18, ([…], Rendon D, et al. Ultra-High-Resolution In vivo Computed Tomography Imaging of Mouse Cerebrovasculature Using a Long Circulating Blood Pool Contrast Agent. Scientific reports. 2015; 5:10178) as described in Data. The vascular data was quantified using ImageJ. Regions of interest encompassing the Circle of Willis (CoW) and the azygous of the anterior cerebral artery (AzACA) and its branches were selected in CT images using thick slab maximum intensity projection (MIP) or 3D volume rendering. The images were converted to 8-bit grayscale and thresholded to highlight the vasculature containing pixels. The pixels were analyzed as particles and normalized to results from the wildtype mice (WT, Mgp^+/+). Immediately after imaging, mice were euthanized, and brains were frozen in Clear Frozen Section Compound (VWR) and stored at -80° C. Blood was collected for complete blood count (Antech). The lungs, livers, spleens, femurs, and kidneys were harvested and fixed in 10% formalin. Photographs of the stained sections were captured using an Eclipse 80i microscope (Nikon)."}, "AVM-BEC [3]": {"tested_on": "AVM-BEC", "experiment": "Immunostaining of MMP2 and MMP9 in AVM-BEC", "format": "cell-based, human", "experimental": "Immunostaining was performed as previously described^15. (Virrey J J, Golden E B, Sivakumar W, et al. Glioma-associated endothelial cells are chemoresistant to temozolomide. J Neurooncol. 2009; 95(1):13-22). Primary antibodies used were rabbit anti-MMP2, mouse anti-MMP9 (1:150, Abgent), rabbit anti-phospho-Smad1/5 (Ser463/465) (1:50, Abgent), rabbit anti-BMP4, rabbit anti-PAI-1 (1:50, Proteintech), rabbit anti-VEGF (1:50, Santa Cruz Biotechnology), rabbit anti-HIF-1α (1:50, Cell Signaling Technology), and rabbit anti-phospho-Smad3 (Ser423/425) (1:50, GeneTex). Secondary antibodies used were biotinylated anti-rabbit and biotinylated anti-mouse (1:300, Vector Laboratories), accordingly. Pictures were taken in an Eclipse 80i microscope (Nikon). Images shown are representative of three-five independent experiments."}, "AVM-BEC [4]": {"tested_on": "AVM-BEC", "experiment": "Invasion assay, Matrigel-coated Boyden chamber, AVM-BEC", "format": "cell-based, human", "details": "overnight, P=0.0012", "source_text": "The chemoinvasion assay was described^14. (Marín-Ramos N I, Thein T Z, Cho H-Y, et al. NEO212 inhibits migration and invasion of glioma stem cells. Mol Cancer Ther. 2018; 17(3):625-637). Pictures were captured using an Eclipse 80i microscope (Nikon), and cells counted with ImageJ Software (NIH)."}}}
{"substance": "hsa-miR-18a-5p (UAGGUGCAUCUAGUGCAGAUAG; chemistry not given here; listed as Homo sapiens) [small non-coding RNA molecule involved in post-transcriptional regulation of gene expression; Dharmacon]", "values": [{"measurement": "TSP-1 release by AVM-BECs (ELISA of cell supernatants)", "setting": "AVM-BEC [1]", "value": "induces TSP-1 release"}, {"measurement": "bone marrow phenotype (adipose cells, megakaryocytes)", "setting": "[2]", "value": "normalized"}, {"measurement": "macrophages in alveoli, lung inflammation", "setting": "[2]", "value": "not present"}, {"measurement": "polychromasia", "setting": "[2]", "value": "minimal or not present"}, {"measurement": "spleens, macroscopic, compared with Mgp^+/+ and Mgp^−/+", "setting": "[2]", "value": "comparable"}, {"measurement": "blood levels of hematocrit (HCT)", "setting": "[2]; n=3", "value": "normalized"}, {"measurement": "blood levels of hemoglobin (HGB)", "setting": "[2]; n=3", "value": "normalized"}, {"measurement": "blood levels of red blood cells (RBC)", "setting": "[2]; n=3", "value": "normalized"}, {"measurement": "MMP9 expression (immunostaining)", "setting": "AVM-BEC [3]", "value": "did not decrease"}, {"measurement": "invasiveness", "setting": "AVM-BEC [4]", "value": "decreased"}]}
